The target of the assay is T1, soluble guanylate cyclase (human GUCYA3/GUCYB3) overexpressed in CHO cells (Homo sapiens, UniProt Q02108+Q02153).
T1 construct: expressed in transfected cells
T1 sequence (Q02108 1-690 partner): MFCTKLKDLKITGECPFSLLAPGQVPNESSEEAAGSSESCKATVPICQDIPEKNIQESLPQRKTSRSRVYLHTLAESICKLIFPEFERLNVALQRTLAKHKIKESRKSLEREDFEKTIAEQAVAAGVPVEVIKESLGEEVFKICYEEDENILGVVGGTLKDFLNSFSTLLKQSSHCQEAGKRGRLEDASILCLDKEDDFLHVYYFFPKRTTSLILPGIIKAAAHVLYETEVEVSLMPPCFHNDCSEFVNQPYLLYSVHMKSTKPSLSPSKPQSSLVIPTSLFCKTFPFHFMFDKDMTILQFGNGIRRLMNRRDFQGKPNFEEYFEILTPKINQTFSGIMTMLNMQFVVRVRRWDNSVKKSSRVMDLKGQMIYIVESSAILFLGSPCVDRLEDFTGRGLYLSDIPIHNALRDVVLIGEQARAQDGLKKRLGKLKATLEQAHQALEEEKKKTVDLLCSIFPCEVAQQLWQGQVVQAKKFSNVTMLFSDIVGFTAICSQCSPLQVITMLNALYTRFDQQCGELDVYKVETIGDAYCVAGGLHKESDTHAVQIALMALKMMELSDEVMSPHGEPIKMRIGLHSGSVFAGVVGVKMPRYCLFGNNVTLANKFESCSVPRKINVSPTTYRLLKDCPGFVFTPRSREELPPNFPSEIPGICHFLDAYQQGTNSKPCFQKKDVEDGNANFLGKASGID
T1 sequence (Q02153 1-619): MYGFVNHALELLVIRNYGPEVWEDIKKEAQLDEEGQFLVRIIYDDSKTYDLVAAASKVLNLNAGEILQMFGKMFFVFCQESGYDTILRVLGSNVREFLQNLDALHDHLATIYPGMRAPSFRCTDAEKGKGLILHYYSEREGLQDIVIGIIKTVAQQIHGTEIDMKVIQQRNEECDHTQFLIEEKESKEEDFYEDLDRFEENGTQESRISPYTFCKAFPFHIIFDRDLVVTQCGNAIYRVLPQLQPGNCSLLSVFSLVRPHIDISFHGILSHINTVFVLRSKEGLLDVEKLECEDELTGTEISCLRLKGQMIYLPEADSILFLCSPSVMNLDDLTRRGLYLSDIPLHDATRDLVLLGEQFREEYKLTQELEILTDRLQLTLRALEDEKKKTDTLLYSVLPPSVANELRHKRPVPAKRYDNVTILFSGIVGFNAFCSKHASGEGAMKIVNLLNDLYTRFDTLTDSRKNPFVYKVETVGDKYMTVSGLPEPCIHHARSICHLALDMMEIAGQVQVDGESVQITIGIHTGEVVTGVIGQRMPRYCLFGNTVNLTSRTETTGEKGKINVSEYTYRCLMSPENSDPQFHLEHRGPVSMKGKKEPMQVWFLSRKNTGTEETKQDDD
The assay can be described thus: CHO cellular assay (cGMP production, HTRF). Type of assay: cell-based. As to conditions: CHO K1 clone 8E10 overexpressing human sGC, Cisbio HTRF, 1 h room temperature, 1 mM IBMX, 20 uM ODQ, minimum quantification limit 0.5 nM. The source says: Chinese hamster ovary (CHO) cells overexpressing soluble guanylate cyclase were generated to test the effect of sGC activators in a cellular context. Human cDNAs for GUCYA3 (RefSeq: NM_000856.3) and GUCYB3 (RefSeq: NM_000857.1) were amplified by PCR from a HUVEC (Human Umbilical Vein Endothelial Cells) cDNA library and cloned into mammalian expression vectors. CHO K1 cells (ATCC CCL-61) were transfected using Lipofectamine 2000 following manufacturer's instructions and stably expressing clones were identified by antibiotic selection. CHO GUCY clone 8E10 was used for subsequent experiments.
Cells were seeded at a density of 3000 cells/well in white 384-well proxyplates (Perkin Elmer) and incubated overnight, then the medium was removed and cells were washed with assay buffer (HBSS, 0.1% BSA, 1 mM IBMX, 20 uM ODQ). sGC activators were serially diluted in DMSO, then diluted in assay buffer prior to adding to cells (10 ul/well, final DMSO concentration 0.5%). Cells were incubated with compounds for 1 h room temperature, then assayed for cGMP production using Cisbio cGMP HTRF kit (62GM2PEC) according to manufacturer's instructions.
The EC50s are calculated based on the amount of cGMP interpolated from the standard curve, using a 4-parameter sigmoidal dose-response.

Experimental findings from patent US9765067B2, “Thiophen-2-yl-pyridin-2-yl-1H-pyrazole-4-carboxylic acid derivatives and the use thereof as soluble guanylate cyclase activators” (Novartis AG, priority 2014, dated 2017) are described below.

Molecules are shown by their SMILES.

In general, EC50 refers to the concentration needed to bring the measured effect to its halfway point. Low values mean a more potent agent, high ones a less potent agent. The compound `Cc1cc(COc2ccc(C3CCN(C(=O)C4CC4)CC3)cc2C)c(-c2cccc(-n3ncc(C(=O)O)c3C(F)(F)F)n2)s1` [Example 5, 1-(6-(3-((4-(1-(Cyclopropanecarbonyl)piperidin-4-yl)-2-methylphenoxy)methyl)-5-methylthiophen-2-yl)pyridin-2-yl)-5-(trifluoromethyl)-1H-pyrazole-4-carboxylic acid] had a 50% effective concentration (EC50) of at most 0.5 nM.

For the compound `Cc1cc(C2CCN(C(=O)C3CC3)CC2)ccc1OCc1ccsc1-c1cccc(-n2ncc(C(=O)O)c2C(F)(F)F)c1` [Example 6-1, 1-(3-(3-((4-(1-(Cyclopropanecarbonyl)piperidin-4-yl)-2-methylphenoxy)methyl)thiophen-2-yl)phenyl)-5-(trifluoromethyl)-1H-pyrazole-4-carboxylic acid], a half-maximal response (EC50) required 1 nM.

The compound `Cc1c(OCc2ccsc2-c2cccc(-n3ncc(C(=O)O)c3C(F)(F)F)n2)ccc(C2CCN(C(=O)C3CC3)CC2)c1C` [Example 6-2, 1-(6-(3-((4-(1-(Cyclopropanecarbonyl)piperidin-4-yl)-2,3-dimethylphenoxy)methyl)thiophen-2-yl)pyridin-2-yl)-5-(trifluoromethyl)-1H-pyrazole-4-carboxylic acid] returned an EC50 of 33 nM.

In turn, `Cc1cc(C2CCN(C(=O)C3CC3)CC2)ccc1OCc1cc(Cl)sc1-c1cccc(-n2ncc(C(=O)O)c2C(F)(F)F)n1` [Example 6-3, 1-(6-(5-Chloro-3-((4-(1-(cyclopropanecarbonyl)piperidin-4-yl)-2-methylphenoxy)methyl)thiophen-2-yl)pyridin-2-yl)-5-(trifluoromethyl)-1H-pyrazole-4-carboxylic acid] showed an EC50 of at most 0.5 nM.

`COc1cc(C2CCN(C(=O)C3CC3)CC2)ccc1OCc1ccsc1-c1cccc(-n2ncc(C(=O)O)c2C(F)(F)F)n1` [Example 6-4, 1-(6-(3-((4-(1-(Cyclopropanecarbonyl)piperidin-4-yl)-2-methoxyphenoxy)methyl)thiophen-2-yl)pyridin-2-yl)-5-(trifluoromethyl)-1H-pyrazole-4-carboxylic acid] came in with an EC50 of 2 nM. In other words, the single-digit nanomolar range.

For `COc1cc(OCc2ccsc2-c2cccc(-n3ncc(C(=O)O)c3C(F)(F)F)n2)ccc1C1CCN(C(=O)C2CC2)CC1` [Example 6-5, 1-(6-(3-((4-(1-(Cyclopropanecarbonyl)piperidin-4-yl)-3-methoxyphenoxy)methyl)thiophen-2-yl)pyridin-2-yl)-5-(trifluoromethyl)-1H-pyrazole-4-carboxylic acid], a half-maximal effect (EC50) was put at 1 nM.

The compound `CCc1cc(OCc2ccsc2-c2cccc(-n3ncc(C(=O)O)c3C(F)(F)F)n2)ccc1C1CCN(C(=O)C2CC2)CC1` [Example 6-6, 1-(6-(3-((4-(1-(Cyclopropanecarbonyl)piperidin-4-yl)-3-ethylphenoxy)methyl)thiophen-2-yl)pyridin-2-yl)-5-(trifluoromethyl)-1H-pyrazole-4-carboxylic acid] had an EC50 of at most 0.5 nM.

In turn, `Cc1cc(C2CCN(C(=O)C3CC3)CC2)ccc1OCc1cc(C2CC2)sc1-c1cccc(-n2ncc(C(=O)O)c2C(F)(F)F)n1` [Example 6-7, 1-(6-(3-((4-(1-(Cyclopropanecarbonyl)piperidin-4-yl)-2-methylphenoxy)methyl)-5-cyclopropylthiophen-2-yl)pyridin-2-yl)-5-(trifluoromethyl)-1H-pyrazole-4-carboxylic acid] displayed an EC50 of 1.4 nM.

With `Cc1cc(C2CCN(C(=O)C3CC3)CC2)ccc1OCc1c(-c2cccc(-n3ncc(C(=O)O)c3C(F)(F)F)n2)sc(C)c1C` [Example 6-8, 1-(6-(3-((4-(1-(Cyclopropanecarbonyl)piperidin-4-yl)-2-methylphenoxy)methyl)-4,5-dimethylthiophen-2-yl)pyridin-2-yl)-5-(trifluoromethyl)-1H-pyrazole-4-carboxylic acid], the EC50 was at most 0.5 nM.

Compound `CCc1c(C(=O)O)cnn1-c1cccc(-c2sccc2COc2ccc(C3CCN(C(=O)C4CC4)CC3)cc2C)n1` [Example 6-9, 1-(6-(3-((4-(1-(Cyclopropanecarbonyl)piperidin-4-yl)-2-methylphenoxy)methyl)thiophen-2-yl)pyridin-2-yl)-5-ethyl-1H-pyrazole-4-carboxylic acid] registered an EC50 of at most 0.5 nM.

Regarding `Cc1cc(COc2ccc(C3CC(C)(C)N(C(=O)C4CC4)C(C)(C)C3)cc2C)c(-c2cccc(-n3ncc(C(=O)O)c3C(F)(F)F)n2)s1` [Example 6-10, 1-(6-(3-((4-(1-(Cyclopropanecarbonyl)-2,2,6,6-tetramethylpiperidin-4-yl)-2-methylphenoxy)methyl)-5-methylthiophen-2-yl)pyridin-2-yl)-5-(trifluoromethyl)-1H-pyrazole-4-carboxylic acid], the EC50 came to 1 nM.

`CCc1cc(OCc2cc(C)sc2-c2cccc(-n3ncc(C(=O)O)c3C(F)(F)F)n2)ccc1C1CCN(C(=O)C2CC2)CC1` [Example 6-11, 1-(6-(3-((4-(1-(Cyclopropanecarbonyl)piperidin-4-yl)-3-ethylphenoxy)methyl)-5-methylthiophen-2-yl)pyridin-2-yl)-5-(trifluoromethyl)-1H-pyrazole-4-carboxylic acid]: the EC50 is at most 0.5 nM.

`Cc1cc(COc2ccc(C3CCN(C(=O)C4CC4)CC3)c(C(C)C)c2)c(-c2cccc(-n3ncc(C(=O)O)c3C(F)(F)F)n2)s1` [Example 6-12, 1-(6-(3-((4-(1-(Cyclopropanecarbonyl)piperidin-4-yl)-3-isopropylphenoxy)methyl)-5-methylthiophen-2-yl)pyridin-2-yl)-5-(trifluoromethyl)-1H-pyrazole-4-carboxylic acid] displayed an EC50 of 1 nM. In other words, the single-digit nanomolar range.

In the case of `Cc1cc(COc2ccc(C3CCN(C(=O)C4CC4)CC3)cc2F)c(-c2cccc(-n3ncc(C(=O)O)c3C(F)(F)F)n2)s1` [Example 6-13, 1-(6-(3-((4-(1-(Cyclopropanecarbonyl)piperidin-4-yl)-2-fluorophenoxy)methyl)-5-methylthiophen-2-yl)pyridin-2-yl)-5-(trifluoromethyl)-1H-pyrazole-4-carboxylic acid], the midpoint of the response, the EC50, lay at 1 nM.

Turning to `Cc1cc(COc2ccc(C3CCN(C(=O)C4CC4)CC3)c(F)c2)c(-c2cccc(-n3ncc(C(=O)O)c3C(F)(F)F)n2)s1` [Example 6-14, 1-(6-(3-((4-(1-(Cyclopropanecarbonyl)piperidin-4-yl)-3-fluorophenoxy)methyl)-5-methylthiophen-2-yl)pyridin-2-yl)-5-(trifluoromethyl)-1H-pyrazole-4-carboxylic acid], the EC50 came to 3 nM. This EC50 lies about 3-fold higher than the previous one.

`CCc1cc(C2CCN(C(=O)C3CC3)CC2)ccc1OCc1cc(C)sc1-c1cccc(-n2ncc(C(=O)O)c2C(F)(F)F)n1` [Example 6-15, 1-(6-(3-((4-(1-(Cyclopropanecarbonyl)piperidin-4-yl)-2-ethylphenoxy)methyl)-5-methylthiophen-2-yl)pyridin-2-yl)-5-(trifluoromethyl)-1H-pyrazole-4-carboxylic acid] displayed an EC50 of 9.5 nM.

For `Cc1cc(COc2ccc(C3CCN(CC(F)(F)F)CC3)cc2C)c(-c2cccc(-n3ncc(C(=O)O)c3C(F)(F)F)n2)s1` [Example 6-16, 1-(6-(5-Methyl-3-((2-methyl-4-(1-(2,2,2-trifluoroethyl)piperidin-4-yl)phenoxy)methyl)thiophen-2-yl)pyridin-2-yl)-5-(trifluoromethyl)-1H-pyrazole-4-carboxylic acid], a half-maximal response (EC50) required 6.3 nM. Compared with the last compound, the EC50 is about 1.5-fold lower.
